Measured values: patent publication US8568763B2, “Compositions and coatings for delivery of therapeutic agents” (The University of Tennessee Research Foundation, priority 2004, dated 2013)

Experiments:
[1] = in vivo; conditions: pig
Protocol: Preimplantation and postexplantation grafts, blood and tissues were sent to the HPLC Drug Monitoring Laboratory at the University of Texas Medical School at Houston, (6431 Fannin, Suite 6.233, Houston Tex. 77030) for rapamycin level quantification. Analyses were performed using HPLC/UV assays developed by Dr Kimberly L. Napoli, the director of the laboratory (Napoli et al., “Distribution of Sirolimus in Rat Tissue,” Clin. Biochem. 30:135-42 (1997), which is hereby incorporated by reference in its entirety). Whole blood was collected on the first three postoperative days and at euthanasia to quantitate systemic exposure to rapamycin. To confirm elution of rapamycin from the ePTFE and deposition of drug in the native arterial wall, explanted grafts and adjacent iliac artery were snap frozen in liquid nitrogen. The tissues were packaged on dry ice and sent for rapamycin quantification. The kinetics of elution were extrapolated by sacrificing nine animals (n=3 per time point) on postoperative day 7, 14 and 28. These animals were separate from the twenty-two animals used to evaluate for changes in neointimal hyperplasia.
Similar drug levels were detected despite sterilization. Similarly, the rapamycin fraction was detected 18 minutes after instilling the sample onto the HPLC column irrespective of sterilization. […] Levels decreased from 1000 μg preimplatation to 26.7 μg at one week post explantation. Drug (2.9 μg/gm) was detected in the adjacent arterial wall on postoperative day 7 and persisted until euthanasia.

[2] = blood of patients prophylaxed against kidney transplant rejection; cited from earlier work
[3] = 90 days, rapamycin-eluting stents, Carter et al; cited from earlier work

Compound: CO[C@H]1C[C@@H]2CC[C@@H](C)[C@@](O)(O2)C(=O)C(=O)N2CCCC[C@H]2C(=O)O[C@H]([C@H](C)C[C@@H]2CC[C@@H](O)[C@H](OC)C2)CC(=O)[C@H](C)/C=C(\C)[C@@H](O)[C@@H](OC)C(=O)[C@H](C)C[C@H](C)/C=C/C=C/C=C/1C [Rapamycin, rapamycin]
- concentration at 1 day ([1]; mongrel): 9.3 ± 0.2 ng/mL
- concentration at 2 day ([1]; mongrel): 2 ± 0.1 ng/mL
- concentration at 3 day ([1]; mongrel): 1.9 ± 0.2 ng/mL
- Rapamycin level in artery ([1]; mongrel, 7 day): 2.9 ± 0.8 μg/gm
- Rapamycin level in graft ([1]; mongrel, 14 day): 12.8 ± 5.0 µg
- Rapamycin level in graft ([1]; mongrel, 28 day): 0.005 ± 0.001 µg
- Detection of rapamycin in blood [1]: not detectable
- Elution of rapamycin off grafts [1]: majority of rapamycin eluted off grafts by one week
- concentration at 7 day [1]: 2900 ng/g
- concentration at 28 day [1]: 25 ng/g
- current therapeutic rapamycin level [2]: 8 to 17 ng/mL
- Rapamycin in the arterial wall [3]: 0.32 ng/mg
